Results as given in article PMC11760775 (bioRxiv, 2025).
“Also recorded” adds a separate entry of the source.

Key:
mice [1] = assay: Tail flick acute heat nociception assay, reversal of morphine analgesia; format: in vivo, mouse; conditions: morphine 20mg/kg i.p., 50°C water bath
mice [2] = assay: Conditioned place aversion in morphine tolerant mice; format: in vivo, mouse

CN1CC[C@]23c4c5ccc(O)c4O[C@H]2[C@@H](O)C=C[C@H]3[C@H]1C5 [morphine]
Tail flick latency (mice [1]): significantly increased

C=CCN1CC[C@]23c4c5ccc(O)c4O[C@H]2C(=O)CC[C@@]3(O)[C@H]1C5 [naloxone]
CPA score (Test - Pretest) (mice [2]): avoided the treatment compartment to a greater extent | Time spent in antagonist-paired (withdrawal precipitation) chamber (mice [2]; after conditioning versus pre-treatment): marked decrease; also recorded: significantly less time
